Results from patent publication US7253285B2, “Thiazolinone 4-monosubstituted quinolines” (Hoffmann-La Roche Inc., priority 2004, dated 2007).
Counter-ions that a name gives are not always drawn.

Tested on: not given
Experiment: not given
Details: not given

melting point [°C]	SMILES
251 to 253	COc1ccnc2ccc(/C=C3\SC(N[C@H]4C[C@@H]4c4ccccc4)=NC3=O)cc12 [Example 2, 5-(4-Methoxy-quinolin-6-ylmeth-(Z)-ylidine)-2-((1R,2S)-2-phenyl-cyclopropylamino)-thiazol-4-one]
239 to 240.5	O=C1N=C(NCc2cccs2)S/C1=C\c1ccc2nccc(Oc3ccccc3)c2c1 [Example 24, 5-(4-Phenoxy-quinolin-6-ylmeth-(Z)-ylidine)-2-[(thiophen-2-ylmethyl)-amino]-thiazol-4-one]
223 to 227	O=C1N=C(N[C@H]2C[C@@H]2c2ccccc2)S/C1=C\c1ccc2nccc(OCC3CCCCC3)c2c1 [Example 10, 5-(4-Cyclohexylmethoxy-quinolin-6-ylmeth-(Z)-ylidine)-2-((1R,2S)-2-phenyl-cyclopropylamino)-thiazol-4-one]
266 to 268	CCOc1ccnc2ccc(/C=C3\SC(N[C@H]4C[C@@H]4c4ccccc4)=NC3=O)cc12 [Example 5, 5-(4-Ethoxy-quinolin-6-ylmeth-(Z)-ylidine)-2-((1R,2S)-2-phenyl-cyclopropylamino)-thiazol-4-one]
226 to 228	CCOc1ccnc2ccc(/C=C3\SC(NCc4cccs4)=NC3=O)cc12 [Example 4, 5-(4-Ethoxy-quinolin-6-ylmeth-(Z)-ylidine)-2-[(thiophen-2-ylmethyl)-amino]-thiazol-4-one]
258 to 262	COc1ccnc2ccc(/C=C3\SC(NCc4cccs4)=NC3=O)cc12 [Example 1, 5-(4-Methoxy-quinolin-6-ylmeth-(Z)-ylidine)-2-[(thiophen-2-ylmethyl)-amino]-thiazol-4-one]

Target: T1, recombinant human CDK1/Cyclin B complex (Homo sapiens, UniProt P06493)
T1 construct: made in house; host or cells: High Five insect cells (baculovirus) for CDK1/GST-cyclin B; E. coli M15 for the Rb substrate
T1 sequence (P06493 whole entry): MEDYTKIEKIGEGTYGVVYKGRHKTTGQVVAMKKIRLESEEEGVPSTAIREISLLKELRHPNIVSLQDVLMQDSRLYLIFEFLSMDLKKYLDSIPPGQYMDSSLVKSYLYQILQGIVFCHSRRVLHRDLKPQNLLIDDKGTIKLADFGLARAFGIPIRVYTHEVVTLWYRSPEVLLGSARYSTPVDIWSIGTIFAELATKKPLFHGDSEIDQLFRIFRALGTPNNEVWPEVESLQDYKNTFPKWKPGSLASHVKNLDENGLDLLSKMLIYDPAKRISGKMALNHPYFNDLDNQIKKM
T1 sequence (P14635 whole entry partner): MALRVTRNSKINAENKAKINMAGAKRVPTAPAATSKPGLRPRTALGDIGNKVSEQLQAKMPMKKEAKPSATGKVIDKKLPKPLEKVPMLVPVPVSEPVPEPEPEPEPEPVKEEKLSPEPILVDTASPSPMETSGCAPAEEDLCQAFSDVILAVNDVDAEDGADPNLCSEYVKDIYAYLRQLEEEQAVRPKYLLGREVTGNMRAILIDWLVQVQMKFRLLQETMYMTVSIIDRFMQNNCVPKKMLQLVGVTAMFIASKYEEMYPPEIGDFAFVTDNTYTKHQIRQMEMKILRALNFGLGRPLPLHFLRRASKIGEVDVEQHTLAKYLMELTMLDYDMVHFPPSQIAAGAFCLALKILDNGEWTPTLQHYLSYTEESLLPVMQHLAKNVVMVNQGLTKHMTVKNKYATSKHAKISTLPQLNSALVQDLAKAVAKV
Experiment: CDK1/Cyclin B kinase assay (FlashPlate or HTRF)
Assay type: biochemical
Details: Rb protein substrate, Ki=IC50/(1+[S]/Km)
Method: To determine inhibition of CDK1 activity, either FlashPlate™ (NEN™-Life Science Products) assay or HTRF assay was performed. Both types of kinase assays were carried out using recombinant human CDK1/Cyclin B complex. GST-cyclinB (GST-cycB) and CDK1 cDNA clones in baculovirus vectors were provided by Dr. W. Harper at the Baylor College of Medicine, Houston, Tex. Proteins were co-expressed in High Five™ insect cells and the complex was purified on glutathione Sepharose resin (Pharmacia, Piscataway, N.J.) as previously described (Harper, J. W. et al. Cell 1993, 75, 805-816). A 6×-Histidine tagged truncated form of retinoblastoma (Rb) protein (amino acid 386-928) was used as the substrate for the CDK1/Cyclin B assay (the expression plasmid was provided by Dr. Veronica Sullivan, Department of Molecular Virology, Roche Research Centre, Welwyn Garden City, United Kingdom). The Rb protein is a natural substrate for phosphorylation by CDK1 (see Herwig and Strauss Eur. J. Biochem. Vol. 246 (1997) pp. 581-601 and the references cited therein). The expression of the 62 Kd protein was under the control of an IPTG inducible promoter in an M15 E. coli strain. Cells were lysed by sonication and purification was carried out by binding lysates at pH 8.0 to a Ni-chelated agarose column pretreated with 1 mM imidazole. The resin was then washed several times with incrementally decreasing pH buffers to pH 6.0, and eluted with 500 mM imidazole. Eluted protein was dialysed against 20 mM HEPES pH 7.5, 30% glycerol, 200 mM NaCl, and 1 mM DTT. Purified Rb fusion protein stocks were quantitated for protein concentration, aliquoted, and stored at −70° C.
For the FlashPlate kinase assay, 96-well FlashPlates were coated with Rb protein at 10 μg/ml, using 100 μl per well. Plates were incubated at 4° C. overnight or at room temperature for 3 hours on a shaker. To control for nonspecific phosphorylation, one row of wells was coated with 100 μl/well coating buffer (20 mM HEPES, 0.2 M NaCl). Plates were then washed twice with wash buffer (0.01% Tween 20 in phosphate-buffered saline). Compounds to be tested (“test compounds”) were added to the wells at 5× final concentration. Reactions were initiated by immediate addition of 40 μl reaction mix (25 mM HEPES, 20 mM MgCl2, 0.002% Tween 20, 2 mM DTT, 1 μM ATP, 4 nM ^33P-ATP) and a sufficient amount of enzyme to give counts that were at least 10-fold above background. Plates were incubated at room temperature on a shaker for 30 minutes. Plates were washed four times with the wash buffer, sealed, and counted on the TopCount scintillation counter (Packard Instrument Co., Downers Grove, Ill.]. The percent inhibition of Rb phosphorylation, which is a measure of the inhibition of CDK activity, was determined according to the following formula:
[formula] where “test compound” refers to the average counts per minute of the test duplicates, “nonspecific” refers to the average counts per minute when no CDK1/Cyclin B, etc., was added, and “total” refers to the average counts per minute when no compound was added. The IC50 value is the concentration of test compound that reduces by 50% the protein-kinase induced incorporation of the radiolabel under the test conditions described. The value of the inhibitor constant Ki is calculated by the following: Ki=IC50/(1+[S]/Km), where [S] is the ATP concentration and Km is Michaelis constant.
The Homogeneous Time Resolved Fluorescence (HTRF) kinase assay was carried out in 96-well polypropylene plates (BD Biosciences, Bedford, Mass.). Test compounds were first dissolved in DMSO, and then diluted in kinase assay buffer 1 (25 mM HEPES, pH7.0, 8 mM MgCl2, 1.5 mM DTT, and 162 μM ATP) with DMSO concentration at 15%. The CDK1/Cyclin B enzyme was diluted in kinase assay buffer 2 (25 mM HEPES, pH 7.0, 8 mM MgCl2, 0.003% Tween 20, 0.045% BSA, 1.5 mM DTT, and 0.338 μM Rb protein). […]

Ki [nM]	SMILES
210	O=C1N=C(NCc2cccs2)S/C1=C\c1ccc2nccc(N3CCOCC3)c2c1 [Example 15, 5-(4-Morpholin-4-yl-quinolin-6-ylmeth-(Z)-ylidine)-2-[(thiophen-2-ylmethyl)-amino]-thiazol-4-one]
340	NC1=NC(=O)/C(=C/c2ccc3nccc(Oc4ccccc4)c3c2)S1 [Example 25, 2-Amino-5-(4-phenoxy-quinolin-6-ylmeth-(Z)-ylidine)-thiazol-4-one]
32	COCCOc1ccnc2ccc(/C=C3\SC(N)=NC3=O)cc12 [Example 20, 2-Amino-5-[4-(2-methoxy-ethoxy)-quinolin-6-ylmeth-(Z)-ylidine]-thiazol-4-one as trifluoroacetate salt]
1190	O=C1N=C(N[C@H]2C[C@@H]2c2ccccc2)S/C1=C\c1ccc2nccc(OCC3CCCCC3)c2c1 [Example 10, 5-(4-Cyclohexylmethoxy-quinolin-6-ylmeth-(Z)-ylidine)-2-((1R,2S)-2-phenyl-cyclopropylamino)-thiazol-4-one]
281	CCOc1ccnc2ccc(/C=C3\SC(NCc4cnc(C)cn4)=NC3=O)cc12 [Example 30, 2-[(5-Methyl-pyrazin-2-ylmethyl)-amino]-5-(4-ethoxy-quinolin-6-ylmeth-(Z)-ylidine)-thiazol-4-one]
39	CCOc1ccnc2ccc(/C=C3\SC(N[C@H]4C[C@@H]4c4ccccc4)=NC3=O)cc12 [Example 5, 5-(4-Ethoxy-quinolin-6-ylmeth-(Z)-ylidine)-2-((1R,2S)-2-phenyl-cyclopropylamino)-thiazol-4-one]
13	CCOc1ccnc2ccc(/C=C3\SC(NCCc4cccc(F)c4)=NC3=O)cc12 [Example 40]
37.2	CCSc1ccnc2ccc(/C=C3\SC(N[C@H]4C[C@@H]4c4ccccc4)=NC3=O)cc12 [Example 35, 5-(4-Ethylsulfanyl-quinolin-6-ylmeth-(Z)-ylidine)-2-((1R,2S)-2-phenyl-cyclopropylamino)-thiazol-4-one]
